Measurements published in patent US20160237491A1, “METHODS FOR TREATING HCV” (AbbVie Inc., priority 2013, published 2016).

Tested on: HCV
Assay: Viral load in treatment-naïve patients on Compound 1 and ritonavir for 3 days, then added peginterferon and ribavirin, grouped by IL28B PM02 methylation
Type: in vivo, human
Details: FIG. 3
Procedure: Twenty-one (21) treatment-naïve patients were included in the study. The patients received Compound 1 and ritonavir for three days followed by the addition of peginterferon and ribavirin for a total of 12 weeks of combination treatment. DNA samples obtained prior to the initiation of treatment were analyzed for methylation in a CpG island in the IL28B promoter corresponding to SEQ ID NO:2 (PM02). Subjects were grouped based on methylation level of PM02. Eleven (11) subjects had methylation values below 45% (diamonds). Ten (10) subjects had methylation values above 45% (squares). Viral load was assessed on Day 1 (“D1”), Day 2 (“D2”), Day 3 (“D3”), Day 4 (“D4”), Day 5 (“D5”), and Day 10 (“D10”) of treatment.

Structure (SMILES): Cc1cnc(C(=O)N[C@H]2CCCCC/C=C\[C@@H]3C[C@@]3(C(=O)NS(=O)(=O)C3CC3)NC(=O)[C@@H]3C[C@@H](Oc4nc5ccccc5c5ccccc45)CN3C2=O)cn1 [Compound 1, (2R,6S,13aS,14aR,16aS,Z)—N-(cyclopropylsulfonyl)-6-(5-methylpyrazine-2-carboxamido)-5,16-dioxo-2-(phenanthridin-6-yloxy)-1,2,3,5,6,7,8,9,10,11,13a,14,14a,15,16,16a-hexadecahydrocyclopropa[e]pyrrolo[1,2-a][1,4]diazacyclopentadecine-14a-carboxamide]
- reduction in viral load (after 10 days of treatment, Compound 1 + ritonavir 3 days, then peginterferon and ribavirin added, both groups (PM02 methylation below 45% n=11, above 45% n=10)): dramatic reduction in viral load
- effect of PM02 methylation status on response (treatment-naïve patients, 10 days of treatment): does not affect response
